# Test results as given in publication PMC12281475, “Mediator Kinase Inhibitor Selectivity and Activity in Colorectal Cancer” (ACS Chemical Biology, 2025).
# How the values were obtained:
# [1] = tested on: MED14 phosphorylation in COLO205 cells; experiment: CDK-phospho-motif immunoprecipitation and MED14 immunoblot, COLO205; format: cell-based, human; settings: COLO205, 350 nM, 6 h
# Excerpt: In the absence of phospho-specific antibodies targeting these sites, we employed immunoprecipitation using CDK-phospho-motif antibodies followed by immunoblotting with a MED14 antibody to validate the observed reduction in MED14 phosphorylation. […] In contrast, phosphorylation of MED13 and MED26 was reduced in only 2 of 5 and 5 of 10 CDK-phospho-motif peptides, respectively (Figure E and Supporting Figure S2C). This heterogeneous phosphorylation pattern complicates validation using motif-based immunoprecipitation, as reductions at specific phospho-sites may be obscured by unchanged CDK-motif phosphorylation at other sites. […]
# (§1) Cell monolayers were washed with PBS twice and lysed using a modified RIPA buffer, mRIPA (50 mM TRIS-HCl pH 7.4, 1% NP-40 substitute, 0.5% NaDOC, 150 mM NaCl, 1 mM EDTA, 0.02% SDS and 1:100 dilution of proteinase and phosphatase inhibitor cocktail, (#5872, Cell Signaling Technology) with overnight freezing at -80 °C and sonication of the cell pellet. Lysates were clarified by centrifugation and supernatants collected and protein concentration determined by a bicinchoninic acid (BCA) assay. […]
# = biological repeats; * = phosphorylated residue). (B) STAT1SER727 phosphorylation in COLO205 or SW620 cell lysates detected using two different phospho-STAT1SER727-specific antibodies following treatment with 350 nM CCT251545 for 6 hours. […]
# [2] = tested on: MED14 phosphorylation in SW620 cells; experiment: CDK-substrate motif immunoprecipitation and MED14 immunoblot, SW620; format: cell-based, human; settings: parent SW620, 350 nM, 6 h
# Excerpt: 3 Mediator kinase knockout alters STAT1^SER727phosphorylation and promoter activity in SW620 human colon cancer cells. (A) Capillary immunoassay of Mediator kinase module expression and pSTAT1^SER727 biomarker in multiple independent knockout clones. GAPDH was included as a loading control. […] Controls included IgG alone for background, DMEM for untreated cells, and DMSO as a vehicle control. MED14 was detected as a doublet pair of bands by immunoblotting of cell lysates (middle gel panel). […] The lower panel includes vinculin as a loading control. (C) Promoter reporter results from CDK8 knockout clone 1 relative to parent SW620 cells. Data represent mean ± s.e.m (n = 3). The black horizontal line indicates unchanged reporter activity, while the horizontal red line highlights reporters with altered activity ±1.5-fold. […]
# as §1
smiles,measurement,setting,value
Cn1cc(-c2ccc(-c3cncc(Cl)c3N3CCC4(CCNC4=O)CC3)cc2)cn1 [CCT251545],"MED14 phosphorylation (CDK-phospho-motif immunoprecipitation, MED14 immunoblot)",[1],decrease was evident
same,MED14 upper band (immunoblot of cell lysates),[2],reduced by active compound treatment
